Experimental data as given in PubChem BioAssay AID2060355 (Molecular Pharmacology Branch, DTP, NCI, 2025).

Tested on: 485368-065-R4-J2-PDC spheroids with HUVEC/MSC, viability
Experiment: Anticancer human tumor 485368-065-R4-J2-PDC patient-derived pancreatic carcinoma cell line growth inhibition [TAK]
Conditions: for IC50: curve of first compound; for viability, T/C: stronger effect = lower value
Description: Combinatorial screen of targeted agents with TAK-243 and ipatasertib in multi-cell type tumor spheroids
A high-throughput screen of multi-cell type tumor spheroids was designed to identify active combinations of targeted small molecules and TAK-243 or ipatasertib. Complex spheroids include a stromal component modeled by human endothelial cells (HUVEC) and fibroblasts modeled by human mesenchymal stem cells (MSCs). The concentration ranges selected for each drug and investigational agent were based upon clinically achievable concentrations if the clinical Cmax of the agent was known.
Compounds. The drugs and investigational agents: TAK-243 (785004), ipatasertib (767898), everolimus (733504), selumetinib (741078), bortezomib (756655), trametinib (758246), ixazomib (758254), vemurafenib (761431), dabrafenib (764134), sapanisertib (764658), alpelisib (765974), and copanlisib (816437), were obtained from the National Cancer Institute (NCI) Developmental Therapeutics Program Chemical Repository. The FDA-approved anticancer drug set is available from the NCI Developmental Therapeutics Program. […] The stock solutions were prepared in dimethyl sulfoxide (DMSO, Sigma-Aldrich, St. Louis, MO, cat. D2650) at 800-fold the tested concentration and stored at -70 degrees C prior to their use. All drugs and investigational agents were tested over a range starting from a high concentration at or near the clinical Cmax and decreasing in half-log increments. If the clinical Cmax for an agent had not been determined, the highest concentration tested was 10 microM.
NCI60 Cell Culture. NCI60 cell lines were obtained from the NCI Developmental Therapeutics Program Tumor Repository. For each lot of cells, the Repository performed Applied Biosystems AmpFLSTR Identifiler testing with PCR amplification to confirm consistency with the published Identifier STR profile for each cell line. Cells were kept in continuous culture for no more than 20 passages. The optimal seeding densities for each of the cell lines at each time point assessed were determined prior to performing the concentration response studies. Briefly, the NCI60 human tumor lines were grown as monolayers in RPMI 1640 medium supplemented with 10% FBS and 2 mmol/L L-glutamine.
An additional 2 lines were from the NCI60 cell line panel including melanomas, MALME-3M and SK-MEL-2. Pooled donor human umbilical vein endothelial cells (HUVEC, Lonza, cat. CC-2519) and human mesenchymal stem cells (hMSC, Lonza, cat. PT-2501) were purchased from Lonza (Walkersville, MD).
PDMR cell lines were grown in complete medium (DC medium): Dulbecco's modified Eagle's medium (DMEM)/F12 supplemented with 5% fetal bovine serum (FBS), 2 mM L-glutamine, 100 U/mL penicillin and 100 µg/ml streptomycin, 0.4 µg/ml hydrocortisone, 10 ng/ml epidermal growth factor (EGF) recombinant human protein, 24 µg/mL adenine, and 0.1 mg/mL primocin. During culture from frozen stock vials, PDMR cells were cultured in the same medium containing 10 µM Y-27632 (see Table 3). The PDCs were cultured in complete DMEM/F12 media without 10 microM Y-27632 dihydrochloride for at least two passages prior to the screen. The pooled donor HUVEC and hMSC were cultured in endothelial cell growth medium 2 (PromoCell, Heidelberg, Germany, cat. C-22011) and mesenchymal stem cell growth medium 2 (PromoCell, cat. C-28009), respectively. For all experiments, HUVEC and hMSC were used at passages </=5.
For the pre-screen, cell seeding densities were determined from a titration spanning the range from 5,000 to 313 cells per well. The mct-spheroids including 60% malignant cells, 25% HUVEC and 15% MSC dispensed as a mixture into U-bottom Ultra-Low Attachment 384-well plates (Corning, NY)
High-throughput Drug Combination Screening.
Prior to their inoculation into 384-well plates, malignant cells, HUVEC, and hMSC were removed from T flasks using TrypLE express (Thermo Fisher Scientific, cat. 12605036) and harvested by centrifugation for 5 min at 233 x g. […]

[1] = second compound 0.3 µM, first compound 0.0316 µM
[2] = second compound 0.3 µM, first compound 0.1 µM
[3] = second compound 0.3 µM, first compound 0.316 µM
[4] = second compound 0.3 µM, first compound 1 µM
[5] = second compound 0.3 µM, first compound 3.16 µM
[6] = second compound 0.3 µM, first compound 10 µM
[7] = second compound 0.949 µM, first compound 0.0316 µM
[8] = second compound 0.949 µM, first compound 0.1 µM
[9] = second compound 0.949 µM, first compound 0.316 µM
[10] = second compound 0.949 µM, first compound 1 µM
[11] = second compound 0.949 µM, first compound 3.16 µM
[12] = second compound 0.949 µM, first compound 10 µM
[13] = second compound 3 µM, first compound 0.0316 µM
[14] = second compound 3 µM, first compound 0.1 µM
[15] = second compound 3 µM, first compound 0.316 µM
[16] = second compound 3 µM, first compound 1 µM
[17] = second compound 3 µM, first compound 3.16 µM
[18] = second compound 3 µM, first compound 10 µM
[19] = second compound 9.49 µM, first compound 0.0316 µM
[20] = second compound 9.49 µM, first compound 0.1 µM
[21] = second compound 9.49 µM, first compound 0.316 µM
[22] = second compound 9.49 µM, first compound 1 µM
[23] = second compound 9.49 µM, first compound 3.16 µM
[24] = second compound 9.49 µM, first compound 10 µM
[25] = second compound 30 µM, first compound 0.0316 µM
[26] = second compound 30 µM, first compound 0.1 µM
[27] = second compound 30 µM, first compound 0.316 µM
[28] = second compound 30 µM, first compound 1 µM
[29] = second compound 30 µM, first compound 3.16 µM
[30] = second compound 30 µM, first compound 10 µM
[31] = second compound 0.3 µM, first compound 0.000316 µM
[32] = second compound 0.3 µM, first compound 0.001 µM
[33] = second compound 0.3 µM, first compound 0.00316 µM
[34] = second compound 0.3 µM, first compound 0.01 µM
[35] = second compound 0.949 µM, first compound 0.000316 µM
[36] = second compound 0.949 µM, first compound 0.001 µM
[37] = second compound 0.949 µM, first compound 0.00316 µM
[38] = second compound 0.949 µM, first compound 0.01 µM
[39] = second compound 3 µM, first compound 0.000316 µM
[40] = second compound 3 µM, first compound 0.001 µM
[41] = second compound 3 µM, first compound 0.00316 µM
[42] = second compound 3 µM, first compound 0.01 µM
[43] = second compound 9.49 µM, first compound 0.000316 µM
[44] = second compound 9.49 µM, first compound 0.001 µM
[45] = second compound 9.49 µM, first compound 0.00316 µM
[46] = second compound 9.49 µM, first compound 0.01 µM
[47] = second compound 30 µM, first compound 0.000316 µM
[48] = second compound 30 µM, first compound 0.001 µM
[49] = second compound 30 µM, first compound 0.00316 µM
[50] = second compound 30 µM, first compound 0.01 µM
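Also: spheroids exposed to compounds for seven days before readout.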
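For viability, T/C in this document: 100% = DMSO vehicle control wells.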

CC(C)(C)c1nc(-c2cccc(NS(=O)(=O)c3c(F)cccc3F)c2F)c(-c2ccnc(N)n2)s1 + CC(C)NCC(C(=O)N1CCN(c2ncnc3c2C(C)CC3O)CC1)c1ccc(Cl)cc1
IC50 (second compound 0.3 µM): 2660 nM
IC50 (second compound 0.949 µM): 589 nM
IC50 (second compound 3 µM): 432 nM
IC50 (second compound 9.49 µM): 353 nM
IC50 (second compound 30 µM): 305 nM
viability, T/C [1]: 104%
viability, T/C [2]: 92.8%
viability, T/C [3]: 71.8%
viability, T/C [4]: 52.9%
viability, T/C [5]: 50.4%
viability, T/C [6]: 47.8%
viability, T/C [7]: 101%
viability, T/C [8]: 91.3%
viability, T/C [9]: 63.4%
viability, T/C [10]: 38.5%
viability, T/C [11]: 30.9%
viability, T/C [12]: 28.1%
viability, T/C [13]: 98.2%
viability, T/C [14]: 83%
viability, T/C [15]: 57.2%
viability, T/C [16]: 31.9%
viability, T/C [17]: 21.2%
viability, T/C [18]: 18%
viability, T/C [19]: 93.4%
viability, T/C [20]: 80.2%
viability, T/C [21]: 52.5%
viability, T/C [22]: 28.3%
viability, T/C [23]: 18.5%
viability, T/C [24]: 17.5%
viability, T/C [25]: 77.2%
viability, T/C [26]: 69.9%
viability, T/C [27]: 49.8%
viability, T/C [28]: 24.8%
viability, T/C [29]: 16.4%
viability, T/C [30]: 15.3%

CC(C)CC(NC(=O)CNC(=O)c1cc(Cl)ccc1Cl)B1OC(=O)CC(CC(=O)O)(C(=O)O)O1 (stereo not given) + CC(C)NCC(C(=O)N1CCN(c2ncnc3c2C(C)CC3O)CC1)c1ccc(Cl)cc1
IC50 (second compound 0.3 µM): 37.7 nM
IC50 (second compound 0.949 µM): 31.3 nM
IC50 (second compound 3 µM): 25.6 nM
IC50 (second compound 9.49 µM): 24.8 nM
IC50 (second compound 30 µM): 19.7 nM
viability, T/C [31]: 89.7%
viability, T/C [32]: 93.9%
viability, T/C [33]: 98.7%
viability, T/C [34]: 106%
viability, T/C [1]: 56.7%
viability, T/C [2]: 12.8%
viability, T/C [35]: 98.4%
viability, T/C [36]: 99%
viability, T/C [37]: 97.5%
viability, T/C [38]: 106%
viability, T/C [7]: 49.6%
viability, T/C [8]: 12.5%
viability, T/C [39]: 103%
viability, T/C [40]: 99.6%
viability, T/C [41]: 99.2%
viability, T/C [42]: 92.6%
viability, T/C [13]: 40.5%
viability, T/C [14]: 9.51%
viability, T/C [43]: 94.7%
viability, T/C [44]: 87.3%
viability, T/C [45]: 89.5%
viability, T/C [46]: 92.6%
viability, T/C [19]: 39%
viability, T/C [20]: 9.49%
viability, T/C [47]: 76.9%
viability, T/C [48]: 80.2%
viability, T/C [49]: 81%
viability, T/C [50]: 76.7%
viability, T/C [25]: 31.3%
viability, T/C [26]: 7.82%

CC(C)n1nc(-c2ccc3oc(N)nc3c2)c2c(N)ncnc21 + CC(C)NCC(C(=O)N1CCN(c2ncnc3c2C(C)CC3O)CC1)c1ccc(Cl)cc1
IC50 (second compound 0.3 µM): 58.5 nM
IC50 (second compound 0.949 µM): 29.3 nM
IC50 (second compound 3 µM): 20.8 nM
IC50 (second compound 9.49 µM): 10.1 nM
IC50 (second compound 30 µM): 6.33 nM
viability, T/C [31]: 95.7%
viability, T/C [32]: 88%
viability, T/C [33]: 90.6%
viability, T/C [34]: 89.7%
viability, T/C [1]: 56.5%
viability, T/C [2]: 44.4%
viability, T/C [35]: 98.6%
viability, T/C [36]: 99.3%
viability, T/C [37]: 91.4%
viability, T/C [38]: 66.7%
viability, T/C [7]: 51.2%
viability, T/C [8]: 40.3%
viability, T/C [39]: 97.8%
viability, T/C [40]: 94.4%
viability, T/C [41]: 81.4%
viability, T/C [42]: 62.5%
viability, T/C [13]: 42.7%
viability, T/C [14]: 34.5%
viability, T/C [43]: 91.9%
viability, T/C [44]: 86.1%
viability, T/C [45]: 75.2%
viability, T/C [46]: 49.4%
viability, T/C [19]: 36.8%
viability, T/C [20]: 32.5%
viability, T/C [47]: 73.1%
viability, T/C [48]: 69.3%
viability, T/C [49]: 57.6%
viability, T/C [50]: 45.3%
viability, T/C [25]: 31.4%
viability, T/C [26]: 25.7%

CCCS(=O)(=O)Nc1ccc(F)c(C(=O)c2c[nH]c3ncc(-c4ccc(Cl)cc4)cc23)c1F + CC(C)NCC(C(=O)N1CCN(c2ncnc3c2C(C)CC3O)CC1)c1ccc(Cl)cc1
IC50 (second compound 0.3 µM): > 100000 nM
IC50 (second compound 0.949 µM): > 100000 nM
IC50 (second compound 3 µM): 6760 nM
IC50 (second compound 9.49 µM): 6080 nM
IC50 (second compound 30 µM): 4180 nM
viability, T/C [3]: 107%
viability, T/C [4]: 101%
viability, T/C [5]: 93.5%
viability, T/C [6]: 50.3%
viability, T/C (second compound 0.3 µM, first compound 31.6 µM): 24.3%
viability, T/C (second compound 0.3 µM, first compound 100 µM): 80.8%
viability, T/C [9]: 103%
viability, T/C [10]: 100%
viability, T/C [11]: 85.7%
viability, T/C [12]: 40.8%
viability, T/C (second compound 0.949 µM, first compound 31.6 µM): 25.1%
viability, T/C (second compound 0.949 µM, first compound 100 µM): 85.1%
viability, T/C [15]: 101%
viability, T/C [16]: 99.5%
viability, T/C [17]: 78.1%
viability, T/C [18]: 34.7%
viability, T/C (second compound 3 µM, first compound 31.6 µM): 29.8%
viability, T/C (second compound 3 µM, first compound 100 µM): 19.4%
viability, T/C [21]: 96.7%
viability, T/C [22]: 95.6%
viability, T/C [23]: 77.4%
viability, T/C [24]: 28.8%
viability, T/C (second compound 9.49 µM, first compound 31.6 µM): 20.2%
viability, T/C (second compound 9.49 µM, first compound 100 µM): 14.8%
viability, T/C [27]: 84%
viability, T/C [28]: 83.8%
viability, T/C [29]: 62.7%
viability, T/C [30]: 10.1%
viability, T/C (second compound 30 µM, first compound 31.6 µM): 10.2%
viability, T/C (second compound 30 µM, first compound 100 µM): 9.85%
